This is an account of results in US20120157448A1, “COMPOUNDS FOR TREATING NEURODEGENERATIVE DISEASES” (priority 2010, published 2012).

Each structure is given as a SMILES string.

T1 sequence (P56817 46-501): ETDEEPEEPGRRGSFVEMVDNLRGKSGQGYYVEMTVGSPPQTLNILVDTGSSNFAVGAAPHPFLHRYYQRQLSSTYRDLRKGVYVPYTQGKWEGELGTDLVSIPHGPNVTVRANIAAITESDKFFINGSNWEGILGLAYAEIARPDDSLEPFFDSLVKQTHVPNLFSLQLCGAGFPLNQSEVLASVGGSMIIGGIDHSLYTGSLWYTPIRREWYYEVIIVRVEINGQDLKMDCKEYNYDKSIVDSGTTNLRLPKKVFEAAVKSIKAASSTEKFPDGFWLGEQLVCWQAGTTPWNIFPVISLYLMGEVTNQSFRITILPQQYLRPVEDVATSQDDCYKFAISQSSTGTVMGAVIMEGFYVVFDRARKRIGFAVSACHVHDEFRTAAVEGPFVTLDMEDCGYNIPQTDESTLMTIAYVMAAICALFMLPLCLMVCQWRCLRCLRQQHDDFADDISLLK

The experiment addresses T1, BACE-1 (Homo sapiens, UniProt P56817).
T1 construct: endogenous in cells; host or cells: HEK-293 cells stably transfected with wild type APP695
Nature of the experiment: Cellular BACE-1 inhibition assay (in vitro cellular Amyloidβ 1-40 production, HTRF immunoassay). To be noted: inhibition of Amyloidβ 1-40 production; HEK-293 cells stably transfected with wild type APP695; 48 hours incubation; average where tested more than once; read-out: IC50. In kind it is cell-based. Here is the method: Materials and Methods: HEK-293 cells stably transfected with a DNA construct containing the coding sequence for the wild type APP695 sequence were grown in Dulbecco's Modified Eagle Medium (“DMEM”) supplemented with 10% fetal bovine serum, penicillin/streptomycin and 150 μg/mL G418. Cells were plated in 96-well plates at 35,000 cells/well and allowed to attach for 8-12 hours. Media was changed to DMEM supplemented with 10% fetal bovine serum, penicillin/streptomycin 15 minutes prior to compound addition. Diluted compounds were then added at a final concentration of 0.5% DMSO. After 48 hours, 4 μL of media from each well was added to a corresponding well of a 384 well plate (Perkin Elmer Cat#6008280) containing the HTRF reagents. HTRF reagents were obtained from the CisBio Amyloid β 1-40 peptide assay kit (Cat#62B40PEC) and were prepared as follows anti-peptide β (1-40)-Cryptate and anti-peptide […] were stored in 2 plate aliquots at −80° C. Diluent and Reconstitution buffer were stored at 4° C. Aliquots of the two antibodies were diluted 1:100 with Reconstitution buffer, and this mixture was diluted 1:2 with Diluent. 12 μL of the reagent mixture was added to the required wells of the 384 well assay plate. The assay plate was incubated at 4° C. for 17 hours and then analyzed for fluorescence at 665 and 620 nm. The following compounds were tested in the above assay. Some compounds were tested more than once, and the average is reported below.
For orientation: Time-resolved FRET reads energy transfer from a long-lived donor to a nearby acceptor.
As to `NC1=N[C@@]2(CO1)c1cc(-c3cncnc3)ccc1O[C@H]1CC[C@H](OCC3CC3)C[C@@H]12` [Example 150, (2′S,4R,4a′S,9a′R)-2′-(cyclopropylmethoxy)-7′-(pyrimidin-5-yl)-1′,2′,3′,4′,4a′,9a′-hexahydro-5H-spiro[oxazole-4,9′-xanthen]-2-amine], the IC50 was found to be 100 nM.

On to `N#Cc1cc(Cl)cc(-c2ccc3c(c2)[C@@]2(COC(N)=N2)[C@H]2C[C@@H](OC4CCC4)CC[C@@H]2O3)c1` [Example 156, 3-((2′S,4R,4a′S,9a′R)-2-amino-2′-cyclobutoxy-1′,2′,3′,4′,4a′,9a′-hexahydro-5H-spiro[oxazole-4,9′-xanthen]-7′-yl)-5-chlorobenzonitrile], for which the IC50 was 92.8 nM.

In the case of `CCOCC1CCC2Oc3ccc(-c4cncc(Cl)c4)cc3C3(COC(N)=N3)[C@H]2O1` (stereo in doubt) [Example 98, (4a′S*,10a′R*)-8′45-chloropyridin-3-yl)-2′-(ethoxymethyl)-3′,4′,4a′,10a′-tetrahydro-2H,5H-spiro[oxazole-4,10′-pyrano[3,2-b]chromen]-2-amine], the IC50 stood at 421 nM. As to `NC1=N[C@@]2(CO1)c1cc(-c3cccnc3F)ccc1O[C@H]1CCN(C(=O)CC3CC3)C[C@@H]12` (relative stereo) [Example 218, 1-((4aS*,4′R*,10aR*)-2′-amino-8-(2-fluoropyridin-3-yl)-1,4,4a,10a-tetrahydro-5′H-spiro[chromeno[3,2-c]pyridine-10,4′-oxazol]-2(3H)-yl)-2-cyclopropylethanone], the 50% inhibitory concentration (IC50) was determined as 457 nM.

In the case of `Cc1nc(C(=O)Nc2ccc3c(c2)C2(COC(N)=N2)[C@@H]2CCCCC2O3)co1` (single isomer, unassigned) [Example 15, N-(2-amino-1′,2′,3′,4′,4a′,9a′-hexahydro-5H-spiro[oxazole-4,9′-xanthene]-7′-yl)-2-methyloxazole-4-carboxamide], the half-maximal inhibitory concentration (IC50) amounted to 58.7 nM.

For the compound `NC1=NC2(CO1)c1cc(NC(=O)c3ccc(Cl)cn3)ccc1OC1CCCCC12` (single isomer, unassigned) [Example 16, N-(2-amino-1′,2′,3′,4′,4a′,9a′-hexahydro-5H-spiro[oxazole-4,9′-xanthene]-7′-yl)-5-chloropicolinamide], the IC50 was determined as 171 nM.

For the compound `NC1=NC2(CO1)c1cc(-c3cncc(Cl)c3)ccc1OC1CCCCC12` (racemic) [Example 9, 7′-(5-chloropyridin-3-yl)-1′,2′,3′,4′,4a′,9a′-hexahydro-5H-spiro[oxazole-4,9′-xanthen]-2-amine], the IC50 was determined as 43.4 nM.

For the compound `NC1=NC2(CS1)c1cc(-c3cncnc3)ccc1OC1CCC(O)C[C@@H]12` (stereo in doubt) [Example 34, (4a′S*,9aR*)-2-amino-7′-(pyrimidin-5-yl)-1′,2′,3′,4′,4a′,9a′-hexahydro-5,4-spiro[thiazole-4,9′-xanthen]-2′-ol], the IC50 came to 90.2 nM. As to `NC1=NC2(CO1)c1cc(-c3cncnc3)ccc1OC1CCCCC12` (single isomer, unassigned) [Example 12, 7′-(pyrimidin-5-yl)-1′,2′,3′,4′,4a′,9a′-hexahydro-5H-spiro[oxazole-4,9′-xanthen]-2-amine], the IC50 came to 60.7 nM.

For the compound `CC(C)O[C@H]1CCC2Oc3ccc(-c4cccnc4F)cc3C3(COC(N)=N3)[C@H]2C1` (stereo partly drawn) [Example 155, (2′S,4a′S,9aR)-7′-(2-fluoropyridin-3-yl)-2′-isopropoxy-1′,2′,3′,4′,4a′,9a′-hexahydro-5H-spiro[oxazole-4,9′-xanthen]-2-amine], the IC50 amounted to 71.4 nM.

The IC50 is the concentration at which inhibition is half-maximal.
